In PubChem BioAssay AID2060607 (Molecular Pharmacology Branch, DTP, NCI, 2025):

System: 876862-298-R-J1-PDC complex spheroids, viability % test/control
Assay: Anticancer human tumor 876862-298-R-J1-PDC patient-derived endometrial carcinoma cell line growth inhibition [CLK]
Conditions: for IC50: curve of first compound; for viability, T/C: stronger effect = lower value; active means viability on the fitted dose curve at most 10% of control; inactive means the rest
Procedure, shortened: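 Multi-cell-type spheroids combined patient-derived tumor cells with HUVEC endothelial cells and human mesenchymal stem cells. Paired agents were dosed in half-log steps down from about clinical Cmax, or from 10 microM where Cmax was unknown.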

[1] = second compound 0.0316 µM, first compound 0.0316 µM
[2] = second compound 0.0316 µM, first compound 0.1 µM
[3] = second compound 0.0316 µM, first compound 0.316 µM
[4] = second compound 0.0316 µM, first compound 1 µM
[5] = second compound 0.0316 µM, first compound 3.16 µM
[6] = second compound 0.0316 µM, first compound 10 µM
[7] = second compound 0.1 µM, first compound 0.0316 µM
[8] = second compound 0.1 µM, first compound 0.1 µM
[9] = second compound 0.1 µM, first compound 0.316 µM
[10] = second compound 0.1 µM, first compound 1 µM
[11] = second compound 0.1 µM, first compound 3.16 µM
[12] = second compound 0.1 µM, first compound 10 µM
[13] = second compound 0.316 µM, first compound 0.0316 µM
[14] = second compound 0.316 µM, first compound 0.1 µM
[15] = second compound 0.316 µM, first compound 0.316 µM
[16] = second compound 0.316 µM, first compound 1 µM
[17] = second compound 0.316 µM, first compound 3.16 µM
[18] = second compound 0.316 µM, first compound 10 µM
[19] = second compound 1 µM, first compound 0.0316 µM
[20] = second compound 1 µM, first compound 0.1 µM
[21] = second compound 1 µM, first compound 0.316 µM
[22] = second compound 1 µM, first compound 1 µM
[23] = second compound 1 µM, first compound 3.16 µM
[24] = second compound 1 µM, first compound 10 µM
[25] = second compound 3.16 µM, first compound 0.0316 µM
[26] = second compound 3.16 µM, first compound 0.1 µM
[27] = second compound 3.16 µM, first compound 0.316 µM
[28] = second compound 3.16 µM, first compound 1 µM
[29] = second compound 3.16 µM, first compound 3.16 µM
[30] = second compound 3.16 µM, first compound 10 µM
[31] = second compound 10 µM, first compound 0.0316 µM
[32] = second compound 10 µM, first compound 0.1 µM
[33] = second compound 10 µM, first compound 0.316 µM
[34] = second compound 10 µM, first compound 1 µM
[35] = second compound 10 µM, first compound 3.16 µM
[36] = second compound 10 µM, first compound 10 µM
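Further: spheroids exposed to drugs for 7 days before readout.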
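Wherever viability, T/C is given: 100% = DMSO vehicle control wells.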

C#Cc1c(F)ccc2cc(O)cc(-c3ncc4c(N5CC6CCC(C5)N6)nc(OCC56CCCN5CC(F)C6)nc4c3F)c12 (stereo not given) + CNC(=O)c1ccc(Nc2nc(OC3CCCC3)c3c(-c4ccc5nc(C)oc5c4)c[nH]c3n2)c(OC)c1
> 10000 nM: IC50 (second compound 0.0316 µM)
< 31.6 nM: IC50 (second compound 0.1 µM) | IC50 (second compound 0.316 µM) | IC50 (second compound 1 µM) | IC50 (second compound 3.16 µM) | IC50 (second compound 10 µM)
inactive: viability, T/C [1] 65.6% | viability, T/C [2] 88.8% | viability, T/C [3] 71.9% | viability, T/C [4] 75.3% | viability, T/C [5] 76.3% | viability, T/C [6] 71.4% | viability, T/C [7] 46.5% | viability, T/C [8] 52.8% | viability, T/C [9] 42.7% | viability, T/C [10] 46.6% | viability, T/C [11] 49.9% | viability, T/C [12] 38.2% | viability, T/C [13] 38% | viability, T/C [14] 40.4% | viability, T/C [15] 38.9% | viability, T/C [16] 41.7% | viability, T/C [17] 39.6% | viability, T/C [18] 34.4% | viability, T/C [19] 33.5% | viability, T/C [20] 34.9% | viability, T/C [21] 27.7% | viability, T/C [22] 30.5% | viability, T/C [23] 32.9% | viability, T/C [24] 26.2% | viability, T/C [25] 23.6% | viability, T/C [26] 22.1% | viability, T/C [27] 22.8% | viability, T/C [28] 21.7% | viability, T/C [29] 24.9% | viability, T/C [30] 20.2% | viability, T/C [31] 20.1% | viability, T/C [32] 20.4% | viability, T/C [33] 21.4% | viability, T/C [34] 21.6% | viability, T/C [35] 20.3% | viability, T/C [36] 19.4%

C=C(F)C(=O)N1CCN(c2nc(OCC3CCCN3C)nc3c2CCN(c2cccc4cccc(Cl)c24)C3)CC1CC#N (stereo not given) + CNC(=O)c1ccc(Nc2nc(OC3CCCC3)c3c(-c4ccc5nc(C)oc5c4)c[nH]c3n2)c(OC)c1
inactive: viability, T/C [1] 61.2% | viability, T/C [2] 84.6% | viability, T/C [3] 74.5% | viability, T/C [4] 84.6% | viability, T/C [5] 87.3% | viability, T/C [7] 47.9% | viability, T/C [8] 49.9% | viability, T/C [9] 47.5% | viability, T/C [10] 48.3% | viability, T/C [11] 38.8% | viability, T/C [13] 42.1% | viability, T/C [14] 39.7% | viability, T/C [15] 43.1% | viability, T/C [16] 39.1% | viability, T/C [17] 31.5% | viability, T/C [19] 33.1% | viability, T/C [20] 33.1% | viability, T/C [21] 32.6% | viability, T/C [22] 27.1% | viability, T/C [23] 27.6% | viability, T/C [25] 22.3% | viability, T/C [26] 24.6% | viability, T/C [27] 22.1% | viability, T/C [28] 21.8% | viability, T/C [29] 21.8% | viability, T/C [30] 0.16% | viability, T/C [31] 23.3% | viability, T/C [32] 22.4% | viability, T/C [33] 19.5% | viability, T/C [34] 21.6% | viability, T/C [35] 18.6%
active: viability, T/C [6] 1.29% | viability, T/C [12] 2.57% | viability, T/C [18] 1.59% | viability, T/C [24] 0.79% | viability, T/C [36] 0.21%
< 31.6 nM: IC50 (second compound 0.1 µM) | IC50 (second compound 0.316 µM) | IC50 (second compound 1 µM) | IC50 (second compound 3.16 µM) | IC50 (second compound 10 µM)
4840 nM: IC50 (second compound 0.0316 µM)

C=CC(=O)N1CCN(c2nc(=O)n(-c3c(C)ccnc3C(C)C)c3nc(-c4c(O)cccc4F)c(F)cc23)C(C)C1 (stereo not given) + CNC(=O)c1ccc(Nc2nc(OC3CCCC3)c3c(-c4ccc5nc(C)oc5c4)c[nH]c3n2)c(OC)c1
322 nM: IC50 (second compound 0.1 µM)
inactive: viability, T/C [1] 70.2% | viability, T/C [2] 84.2% | viability, T/C [3] 69% | viability, T/C [4] 90.2% | viability, T/C [5] 80.9% | viability, T/C [6] 60.5% | viability, T/C [7] 52.4% | viability, T/C [8] 54.5% | viability, T/C [9] 46% | viability, T/C [10] 46.9% | viability, T/C [11] 50.2% | viability, T/C [12] 41% | viability, T/C [13] 42.7% | viability, T/C [14] 43.5% | viability, T/C [15] 42.2% | viability, T/C [16] 39.6% | viability, T/C [17] 46.1% | viability, T/C [18] 35.2% | viability, T/C [19] 32.4% | viability, T/C [20] 29.6% | viability, T/C [21] 30.1% | viability, T/C [22] 29.3% | viability, T/C [23] 29.3% | viability, T/C [24] 23.3% | viability, T/C [25] 24% | viability, T/C [26] 25.2% | viability, T/C [27] 23.1% | viability, T/C [28] 21.6% | viability, T/C [29] 23.5% | viability, T/C [30] 13.6% | viability, T/C [31] 24.6% | viability, T/C [32] 19.5% | viability, T/C [33] 19.1% | viability, T/C [34] 22.7% | viability, T/C [35] 20.1% | viability, T/C [36] 10.2%
< 31.6 nM: IC50 (second compound 0.316 µM) | IC50 (second compound 1 µM) | IC50 (second compound 3.16 µM) | IC50 (second compound 10 µM)
> 10000 nM: IC50 (second compound 0.0316 µM)

CCCS(=O)(=O)Nc1ccc(F)c(C(=O)c2c[nH]c3ncc(-c4ccc(Cl)cc4)cc23)c1F + CNC(=O)c1ccc(Nc2nc(OC3CCCC3)c3c(-c4ccc5nc(C)oc5c4)c[nH]c3n2)c(OC)c1
7040 nM: IC50 (second compound 0.0316 µM)
< 31.6 nM: IC50 (second compound 0.1 µM) | IC50 (second compound 0.316 µM) | IC50 (second compound 1 µM) | IC50 (second compound 3.16 µM) | IC50 (second compound 10 µM)
inactive: viability, T/C [1] 72.1% | viability, T/C [2] 89.1% | viability, T/C [3] 88.1% | viability, T/C [4] 90.9% | viability, T/C [5] 68.2% | viability, T/C [6] 42% | viability, T/C [7] 40.2% | viability, T/C [8] 54.9% | viability, T/C [9] 50.5% | viability, T/C [10] 49.2% | viability, T/C [11] 40.4% | viability, T/C [12] 26.6% | viability, T/C [13] 45.6% | viability, T/C [14] 41.2% | viability, T/C [15] 43.8% | viability, T/C [16] 40.1% | viability, T/C [17] 31.7% | viability, T/C [18] 18.1% | viability, T/C [19] 36.9% | viability, T/C [20] 32% | viability, T/C [21] 30.7% | viability, T/C [22] 32.7% | viability, T/C [23] 22.4% | viability, T/C [24] 12.7% | viability, T/C [25] 23.5% | viability, T/C [26] 25.1% | viability, T/C [27] 21.2% | viability, T/C [28] 26.1% | viability, T/C [29] 19.1% | viability, T/C [30] 10.8% | viability, T/C [31] 23.1% | viability, T/C [32] 21.4% | viability, T/C [33] 21% | viability, T/C [34] 22.3% | viability, T/C [35] 15.9% | viability, T/C [36] 10.4%

COC1C=CCC(C)C(C)S(=O)(=O)NC(=O)c2ccc3c(c2)N(CC2CCC21)CC1(CCCc2cc(Cl)ccc21)CO3 (stereo not given) + CNC(=O)c1ccc(Nc2nc(OC3CCCC3)c3c(-c4ccc5nc(C)oc5c4)c[nH]c3n2)c(OC)c1
inactive: viability, T/C [1] 72% | viability, T/C [2] 92.5% | viability, T/C [3] 66.1% | viability, T/C [4] 104% | viability, T/C [5] 86.2% | viability, T/C [6] 29.1% | viability, T/C [7] 46.2% | viability, T/C [8] 45.4% | viability, T/C [9] 37.3% | viability, T/C [10] 32.2% | viability, T/C [11] 30.3% | viability, T/C [12] 21.5% | viability, T/C [13] 40.3% | viability, T/C [14] 33.6% | viability, T/C [15] 29.8% | viability, T/C [16] 24.8% | viability, T/C [17] 20.5% | viability, T/C [18] 19.1% | viability, T/C [19] 31.9% | viability, T/C [20] 25.8% | viability, T/C [21] 20.6% | viability, T/C [22] 17.6% | viability, T/C [23] 13.8% | viability, T/C [24] 13.5% | viability, T/C [25] 26.1% | viability, T/C [26] 20.3% | viability, T/C [27] 15.6% | viability, T/C [28] 12% | viability, T/C [31] 22.6% | viability, T/C [32] 19% | viability, T/C [33] 12.3% | viability, T/C [34] 12.3%
6470 nM: IC50 (second compound 0.0316 µM)
active: viability, T/C [29] 9.4% | viability, T/C [30] 7.9% | viability, T/C [35] 9.91% | viability, T/C [36] 5.3%
< 31.6 nM: IC50 (second compound 0.1 µM) | IC50 (second compound 0.316 µM) | IC50 (second compound 1 µM) | IC50 (second compound 3.16 µM) | IC50 (second compound 10 µM)
